{"source": "patent US20070184490A1", "about": "“Neuronal nicotinic receptor ligands and their use” (priority 2006, published 2007)", "key": {"adults with ADHD": {"system": "adults with ADHD", "assay": "pilot crossover study in adults with ADHD: CAARS, CGI-ADHD-S, HAM-A, HAM-D", "assay_type": "in vivo, human", "from_the_text": "In addition to the primary outcome, the Conner's Adult ADHD Rating Scale (CAARS), secondary rating scales, neuropsychological, and safety assessments were completed. Results: A total of 11 adults with well-characterized ADHD completed this crossover study. […] On the clinical efficacy endpoints, CAARS Total Symptom Score and CAARS Hyperactive/Impulsive score, a shallow inverted V-shaped dose-response curve was observed. However, the dose-response curve for attention and memory effects as measured by computerized cognitive testing seemed dose-linear. No clinically meaningful findings in safety assessments or side effect profile were observed.\nSubjects between 18 and 60 years old who met the DSM-IV-TR criteria for ADHD as assessed by clinical interview and confirmed by the Washington University in St. Louis Kiddie Schedule for Affective Disorders and Schizophrenia (WASH-U-KSADS) diagnostic criteria for ADHD (Orvaschel 1985) (Geller et al 1998) were eligible for inclusion in the study. Furthermore, a score of ≧2 on at least six of nine items in at least one of the subscales of the Conner's Adult ADHD Rating Scale (CAARS) (Conners et al 1999) at screening and Day 1 and a score of ≧4 (i.e., at least moderate severity) on the Clinical Global Impressions-ADHD Severity (CGI-ADHD-S) test (Guy 1976) at screening were required. Exclusion criteria consisted of: smoker or user of nicotine product(s) in the three months prior to enrollment; clinically significant chronic medical conditions; current diagnosis or history of schizoaffective or bipolar disorder, obsessive-compulsive disorder, schizophrenia, or other psychotic disorder; current depression requiring treatment; serious homicidal or suicidal ideation; abnormal baseline laboratory values; drug or alcohol abuse/dependence within the last three months; current use of psychotropics or stimulants; and pregnant or lactating women. The following institutional review boards at Quorum IRB in Seattle, Wash., The Human Research Committee at the Lawrence House in Boston, Mass., the Institutional Board of Research Associates at the NYU School of Medicine in New York, N.Y., the New York Campus, Va. NY Harbor Healthcare Systems Subcommittee for human subjects, research and development subcommittee, and research safety subcommittee in New York, N.Y., the University of Vermont Committee on Human Research in Burlington, Vt., the Scientific Advisory Committee of Burlington, Vt., and the University of Chicago Hospitals IRB in Chicago, Ill. approved the study protocol, and all subjects provided written, informed consent.\nFollowing an initial two-week medication washout and screening period, subjects entered an eight-week double-blind treatment period. […] A study design schematic is provided below in Table 1.\nRaters for the CAARS were trained and certified prior to the start of the study. Investigator-administered CAARS, CGI-ADHD-S, Hamilton Anxiety Scale (HAM-A) (Hamilton 1959), and Hamilton Depression Scale (HAM-D) (Hamilton 1960) were administered to subjects at baseline and at the completion of each treatment period (Days 14, 28, 42, and 56). CMRS, HAM-A, and HAM-D ratings were based on the previous seven days. After being trained, subjects completed a computerized cognitive assessment battery (Simpson et al 1989), which was amended to include the Conner's Continuous Performance Test (Conners 1995) and the Stroop Color Word Test (Jensen and Rohwer 1966), at baseline and at the completion of each treatment period. Attentional tasks (simple and choice reaction time, digit vigilance), selective attention (Conner's CPT), working memory tasks (numeric and spatial working memory, rapid visual information processing), episodic secondary memory (immediate and delayed word recall, word and picture recognition), motor control tasks (tracking), and executive function (the Stroop effect) were among the items assessed. […]"}, "[1]": {"assay": "pilot study: population PK plasma concentrations at steady state", "assay_type": "in vivo, human", "experimental": "Blood samples for pharmacokinetic analysis were taken at 0, 1, 2, 4, and 8 hours on Day 1 and at approximately 2 hours post-dose on the last day of each dosing period. The blood samples were immediately stored at 4° C. or below. The blood samples were centrifuged within one hour of collection using a refrigerated centrifuge to separate the plasma. The plasma samples were transferred using plastic pipettes into plastic vials. The plasma samples were frozen at −20° C. within one hour from centrifugation and remained frozen until shipped to Abbott Laboratories for analysis.\nDue to limited pharmacokinetic sampling timepoints, trough and average concentrations were estimated using a non-linear mixed-effect pharmacokinetic modeling approach with NONMEM software Version V)."}, "[2]": {"assay": "pilot study: tolerability and safety", "assay_type": "in vivo, human", "settings": "for Adverse event Headache, subjects reporting / Adverse event Increased appetite, subjects reporting / Adverse event Nervousness, subjects reporting / Adverse event Pain, subjects reporting / Adverse event Somnolence, subjects reporting: N=11", "experimental": "Safety was evaluated by spontaneous report of adverse events; in addition, laboratory data (hematology, chemistry, urinalysis), vital signs, and electrocardiograms ([…]) were completed at baseline and at the end of each treatment period."}, "[3]": {"assay": "Phase 1 multiple dose human study", "assay_type": "in vivo", "settings": "5 to 40 mg twice daily"}, "human α4 β2 NNRs": {"target": "human α4 β2 NNRs (Homo sapiens, UniProt P17787+P43681)", "sequence (P43681 29-627 limits assumed)": "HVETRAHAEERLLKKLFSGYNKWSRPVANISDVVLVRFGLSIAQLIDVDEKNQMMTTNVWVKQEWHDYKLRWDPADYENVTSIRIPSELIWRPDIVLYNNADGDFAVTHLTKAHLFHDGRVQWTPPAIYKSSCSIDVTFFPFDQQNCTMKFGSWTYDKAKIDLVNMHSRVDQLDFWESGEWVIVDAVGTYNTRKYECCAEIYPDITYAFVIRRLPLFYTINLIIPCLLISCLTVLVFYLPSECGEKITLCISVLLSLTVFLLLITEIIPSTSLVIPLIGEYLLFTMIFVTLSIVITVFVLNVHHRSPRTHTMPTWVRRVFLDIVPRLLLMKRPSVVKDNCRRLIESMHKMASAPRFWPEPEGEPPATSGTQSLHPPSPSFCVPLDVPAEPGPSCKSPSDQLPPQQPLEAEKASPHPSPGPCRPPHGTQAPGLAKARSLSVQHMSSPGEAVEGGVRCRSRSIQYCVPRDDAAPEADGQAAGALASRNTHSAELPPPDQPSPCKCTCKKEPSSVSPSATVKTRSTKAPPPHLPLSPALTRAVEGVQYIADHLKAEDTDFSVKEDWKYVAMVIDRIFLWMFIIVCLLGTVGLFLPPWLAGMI", "sequence (P17787 26-502)": "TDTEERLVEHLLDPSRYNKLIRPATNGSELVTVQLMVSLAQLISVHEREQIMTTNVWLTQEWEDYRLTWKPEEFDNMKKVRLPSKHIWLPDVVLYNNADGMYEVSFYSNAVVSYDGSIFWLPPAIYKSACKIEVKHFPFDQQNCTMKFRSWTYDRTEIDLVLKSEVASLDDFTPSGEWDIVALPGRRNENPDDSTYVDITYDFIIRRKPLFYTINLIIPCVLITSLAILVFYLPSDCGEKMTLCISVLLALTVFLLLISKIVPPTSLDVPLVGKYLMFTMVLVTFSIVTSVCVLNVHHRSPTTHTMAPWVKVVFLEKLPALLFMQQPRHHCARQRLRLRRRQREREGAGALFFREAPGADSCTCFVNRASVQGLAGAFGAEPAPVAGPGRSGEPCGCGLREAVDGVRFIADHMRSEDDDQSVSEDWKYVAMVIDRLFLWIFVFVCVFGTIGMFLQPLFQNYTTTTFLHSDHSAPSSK", "assay": "binding to human α4β2 NNRs in vitro"}}, "data": [{"smiles": "Cc1ncccc1OC[C@@H]1CCCN1", "note": "[ABT-089, 2-methyl-3-(2-(S)-pyrrolidinylmethoxy)pyridine]", "values": [{"measurement": "Hyperactive/impulsive score improvement vs. placebo", "setting": "adults with ADHD; 2 mg and 4 mg doses", "result": "~20", "unit": "%"}, {"measurement": "Inattentive score improvement versus placebo", "setting": "adults with ADHD; 2 mg and 20 mg doses", "result": "approximately 11%"}, {"measurement": "CAARS Hyperactive/Impulsive subscale, least square mean (±SE)", "setting": "adults with ADHD; 2 mg bid", "result": "13.8 (0.9)"}, {"measurement": "CAARS Inattentive subscale, least square mean (±SE)", "setting": "adults with ADHD; 2 mg bid", "result": "18.3 (1.2)"}, {"measurement": "CGI-ADHD-S mean score", "setting": "adults with ADHD; 2 mg dose", "result": "3.92 (0.20)"}, {"measurement": "effect size, CAARS total symptom score vs placebo", "setting": "adults with ADHD; 2 mg twice daily", "result": 0.92}, {"measurement": "CAARS Hyperactive/Impulsive subscale, least square mean (±SE)", "setting": "adults with ADHD; 4 mg bid", "result": "14.5 (0.9)"}, {"measurement": "CAARS Inattentive subscale, least square mean (±SE)", "setting": "adults with ADHD; 4 mg bid", "result": "18.7 (1.2)"}, {"measurement": "CGI-ADHD-S mean score", "setting": "adults with ADHD; 4 mg dose", "result": "4.09 (0.20)"}, {"measurement": "effect size, CAARS total symptom score vs placebo", "setting": "adults with ADHD; 4 mg twice daily", "result": 0.76}, {"measurement": "CAARS Hyperactive/Impulsive subscale, least square mean (±SE)", "setting": "adults with ADHD; 20 mg bid", "result": "15.4 (0.9)"}, {"measurement": "CAARS Inattentive subscale, least square mean (±SE)", "setting": "adults with ADHD; 20 mg bid", "result": "18.1 (1.2)"}, {"measurement": "CGI-ADHD-S mean score", "setting": "adults with ADHD; 20 mg dose", "result": "4.12 (0.20)"}, {"measurement": "effect size, CAARS total symptom score vs placebo", "setting": "adults with ADHD; 20 mg twice daily", "result": 0.71}, {"measurement": "effect on HAM-A or HAM-D scores", "setting": "adults with ADHD; in vivo", "result": "no effect"}, {"measurement": "Cavg Mean (±SD), model-predicted, steady state", "setting": "[1]; 2 mg bid", "result": "4.47 (1.05) ng/mL"}, {"measurement": "Ctrough Mean (±SD), model-predicted, steady state", "setting": "[1]; 2 mg bid", "result": "1.85 (0.79) ng/mL"}, {"measurement": "Cavg Mean (±SD), model-predicted, steady state", "setting": "[1]; 4 mg bid", "result": "8.94 (2.09) ng/mL"}, {"measurement": "Ctrough Mean (±SD), model-predicted, steady state", "setting": "[1]; 4 mg bid", "result": "3.69 (1.59) ng/mL"}, {"measurement": "Cavg Mean (±SD), model-predicted, steady state", "setting": "[1]; 20 mg bid", "result": "44.7 (10.46) ng/mL"}, {"measurement": "Ctrough Mean (±SD), model-predicted, steady state", "setting": "[1]; 20 mg bid", "result": "18.46 (7.95) ng/mL"}, {"measurement": "Adverse event Headache, subjects reporting", "setting": "[2]; 2 mg bid", "result": 3}, {"measurement": "Adverse event Increased appetite, subjects reporting", "setting": "[2]; 2 mg bid", "result": 0}, {"measurement": "Adverse event Nervousness, subjects reporting", "setting": "[2]; 2 mg bid", "result": 1}, {"measurement": "Adverse event Pain, subjects reporting", "setting": "[2]; 2 mg bid", "result": 0}, {"measurement": "Adverse event Somnolence, subjects reporting", "setting": "[2]; 2 mg bid", "result": 0}, {"measurement": "serious adverse events", "setting": "[2]; 2 mg to 20 mg twice daily", "result": "no serious adverse events"}, {"measurement": "tolerability", "setting": "[2]; 2 mg to 20 mg twice daily, 11 adult ADHD subjects", "result": "well tolerated"}, {"measurement": "Adverse event Headache, subjects reporting", "setting": "[2]; 4 mg bid", "result": 0}, {"measurement": "Adverse event Increased appetite, subjects reporting", "setting": "[2]; 4 mg bid", "result": 0}, {"measurement": "Adverse event Nervousness, subjects reporting", "setting": "[2]; 4 mg bid", "result": 0}, {"measurement": "Adverse event Pain, subjects reporting", "setting": "[2]; 4 mg bid", "result": 0}, {"measurement": "Adverse event Somnolence, subjects reporting", "setting": "[2]; 4 mg bid", "result": 0}, {"measurement": "nausea, subjects", "setting": "[2]; 4 mg dose", "result": "one subject"}, {"measurement": "Adverse event Headache, subjects reporting", "setting": "[2]; 20 mg bid", "result": 2}, {"measurement": "Adverse event Nervousness, subjects reporting", "setting": "[2]; 20 mg bid", "result": 1}, {"measurement": "Adverse event Pain, subjects reporting", "setting": "[2]; 20 mg bid", "result": 2}, {"measurement": "Adverse event Somnolence, subjects reporting", "setting": "[2]; 20 mg bid", "result": 2}, {"measurement": "laboratory findings, vital signs or ECG", "setting": "[2]; during the study", "result": "no clinically meaningful findings or dose-related trends"}, {"measurement": "tolerability", "setting": "[3]", "result": "well tolerated"}, {"measurement": "Simple Reaction Time, a measure of attention", "setting": "[3]; compared to placebo", "result": "significantly improved"}, {"measurement": "binding to human α4 β2 NNRs", "setting": "human α4 β2 NNRs", "result": "very selectively binds"}]}]}
